What was measured:
[1] = biological target: T1, Ba/F3-FL-EGFR (Homo sapiens, UniProt P00533); assay: CellTiter-Glo proliferation, Ba/F3-FL-EGFR; type: cell-based; conditions: 72 hours, read-out: Ba/F3-FL-EGFR IC50/nM
T1 construct: FL read as full length
Method in brief: (§1)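 Ba/F3 lines dependent on the indicated EGFR variants were treated with compounds at a final DMSO concentration of 0.1% at 37 °C, 5% CO2. Viability was read by CellTiter-Glo luminescence, and inhibition rate was normalised to DMSO-treated cells (max) and medium-only wells (min). IC50 came from inhibition curves.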

[2] = biological target: Ba/F3-FL-EGFR-L858R (Homo sapiens, UniProt P00533, L858R, cells depend on it); assay: CellTiter-Glo proliferation, Ba/F3-FL-EGFR-L858R; type: cell-based; conditions: 72 hours, read-out: Ba/F3-FL-EGFR-L858R IC50/nM
Method in brief: as §1

[3] = biological target: T2, Ba/F3-TEL-EGFR-L858R-C797S (Homo sapiens, UniProt P00533, C797S/L858R, cells depend on it); assay: CellTiter-Glo proliferation, Ba/F3-TEL-EGFR-L858R-C797S; type: cell-based; conditions: 72 hours, read-out: Ba/F3-TEL-EGFR-L858R-C797S IC50/nM
T2 construct: fused on or other part: N-terminal TEL (ETV6) oligomerising part fused to the EGFR intracellular/kinase part; P41212 (Transcription factor ETV6)
Method in brief: as §1

[4] = biological target: Ba/F3-FL-EGFR-L858R-T790M-C797S (Homo sapiens, UniProt P00533, T790M/C797S/L858R, cells depend on it); assay: CellTiter-Glo proliferation, Ba/F3-FL-EGFR-L858R-T790M-C797S; type: cell-based; conditions: 72 hours, read-out: Ba/F3-FL-EGFR-L858R-T790M-C797S IC50/nM
Method in brief: as §1

[5] = tested on: Ba/F3-FL-EGFR-del19-C797S; assay: CellTiter-Glo proliferation, Ba/F3-FL-EGFR-del19-C797S; type: cell-based; conditions: 72 h, proliferation, 72 hours, CellTiter-Glo; read-out: Ba/F3-FL-EGFR-del19-C797S IC50/nM
Method in brief: as §1

[6] = biological target: Ba/F3-FL-EGFR-del19-T790M-C797S (Homo sapiens, UniProt P00533, DEL746-750/T790M/C797S, cells depend on it); assay: CellTiter-Glo proliferation, Ba/F3-FL-EGFR-del19-T790M-C797S; type: cell-based; conditions: 72 hours, read-out: Ba/F3-FL-EGFR-del19-T790M-C797S IC50/nM
Procedure: Promega CellTiter-Glo reagent was used to detect the effects of small molecule inhibitors on the proliferation of three Ba/F3 cell lines (Ba/F3-FL-EGFR-de119, Ba/F3-FL-EGFR-de119-T790M, Ba/F3-FL-EGFR-de119-T790M-C797S).
The cell lines were cultured in an incubator at 37° C. and 5% CO2. Cells were passaged regularly and cells in the logarithmic phase were used for plating. 95 μL of cell suspension was added to each well of the cell plate, and culture medium without cells (containing 0.1% DMSO) was added to the Min control wells. Substance addition for compound detection cell plate: 5 μL of 20× compound working solution was added to the cell culture plate. 5 μL of DMSO-cell culture medium mixture was added to the Max control, with the final DMSO concentration of 0.1%. 5 μL of DMSO-cell culture medium mixture was added to the Max control. The final DMSO concentration was 0.1%.
Cell viability was detected by CellTiter-Glo luminescence assay. Data analysis:
The cell proliferation inhibition rate (Inhibition Rate) data was processed using the following formula: […]
wherein: RLUDrug represents the relative luminescence unit of the cells with the addition of drug, RLUMin represents the luminescence unit of the culture medium, and RLUMax represents the relative luminescence unit of the cells with the addition of DMSO.
The inhibition rates corresponding to different concentrations of compounds were calculated in EXCEL, and then the inhibition rate curve was plotted using GraphPad Prism software and related parameters including the maximum and minimum inhibition rates of cells and IC50 values were calculated.

[7] = Liver microsome stability test, human; type: in vitro ADME; conditions: human liver microsomes 0.5 mg/ml, compound 1 μM, NADPH 1 mM, within 60 minutes
Procedure: (§2) The compounds of the present disclosure were subjected to a liver microsome stability test. The compounds to be tested were co-incubated with liver microsomes of different species with or without the addition of NADPH. The final concentration of the compounds to be tested in the test system was 1 μM. The final concentration of NADPH was 1 mM, and the final concentration of liver microsomes was 0.5 mg/ml.

[8] = Liver microsome stability test, mouse; type: in vitro ADME; conditions: mouse liver microsomes 0.5 mg/ml, compound 1 μM, NADPH 1 mM, within 60 minutes
Procedure: as §2

[9] = tested on: BaF3 (del19/T790M1C797S) tumor cells; assay: In vivo efficacy assay in BALB/c nude mice, subcutaneous BaF3 tumor; conditions: 100 mg/kg BID oral (50 mg/kg for the first 4 days, 100 mg/kg from the 5th day), after 13 days
Procedure: In vivo efficacy assay in BALB/c nude mice. Details were as follows:
BaF3 (del19/T790M1C797S) tumor cells were cultured and inoculated into 6-8 weeks old female BALB/c nude mice (weighing about 20 g), with all mice being subcutaneously inoculated. The mice were cultured in an SPF-grade experimental environment, and all mice had free access to commercially certified standard diets. When the average tumor volume of the mice grew to about 150 mm^3, the test compound was orally administered daily. The dosage was as follows: blank group vehicle (DMSO/Solutol/H2O, 5/10/85). […] The tumor volume was measured three times a week with a two-dimensional caliper, and the animals were weighed every day. […] The volume calculation formula is: V=1/2a*b^2, where a represents the long diameter of the tumor, and b represents the short diameter of the tumor.

[10] = biological target: Ba/F3-FL-EGFR-Del19 (E746-A750) (Homo sapiens, UniProt P00533, DEL746-750, cells depend on it); assay: CellTiter-Glo proliferation, Ba/F3-FL-EGFR-Del19; conditions: read-out: Ba/F3-FL-EGFR-Del19 (E746-A750), 72 hours
[11] = biological target: Ba/F3-FL-EGFR-del19/T790M (Homo sapiens, UniProt P00533, DEL746-750/T790M, cells depend on it); assay: CellTiter-Glo proliferation, Ba/F3-FL-EGFR-del19/T790M; conditions: read-out: Ba/F3-FL-EGFR-del19/T790M IC50/nM, 72 hours
Ba/F3-FL-EGFR-del19/T790M, sequence (P00533 with tags, fused parts or gaps DEL746-750/T790M): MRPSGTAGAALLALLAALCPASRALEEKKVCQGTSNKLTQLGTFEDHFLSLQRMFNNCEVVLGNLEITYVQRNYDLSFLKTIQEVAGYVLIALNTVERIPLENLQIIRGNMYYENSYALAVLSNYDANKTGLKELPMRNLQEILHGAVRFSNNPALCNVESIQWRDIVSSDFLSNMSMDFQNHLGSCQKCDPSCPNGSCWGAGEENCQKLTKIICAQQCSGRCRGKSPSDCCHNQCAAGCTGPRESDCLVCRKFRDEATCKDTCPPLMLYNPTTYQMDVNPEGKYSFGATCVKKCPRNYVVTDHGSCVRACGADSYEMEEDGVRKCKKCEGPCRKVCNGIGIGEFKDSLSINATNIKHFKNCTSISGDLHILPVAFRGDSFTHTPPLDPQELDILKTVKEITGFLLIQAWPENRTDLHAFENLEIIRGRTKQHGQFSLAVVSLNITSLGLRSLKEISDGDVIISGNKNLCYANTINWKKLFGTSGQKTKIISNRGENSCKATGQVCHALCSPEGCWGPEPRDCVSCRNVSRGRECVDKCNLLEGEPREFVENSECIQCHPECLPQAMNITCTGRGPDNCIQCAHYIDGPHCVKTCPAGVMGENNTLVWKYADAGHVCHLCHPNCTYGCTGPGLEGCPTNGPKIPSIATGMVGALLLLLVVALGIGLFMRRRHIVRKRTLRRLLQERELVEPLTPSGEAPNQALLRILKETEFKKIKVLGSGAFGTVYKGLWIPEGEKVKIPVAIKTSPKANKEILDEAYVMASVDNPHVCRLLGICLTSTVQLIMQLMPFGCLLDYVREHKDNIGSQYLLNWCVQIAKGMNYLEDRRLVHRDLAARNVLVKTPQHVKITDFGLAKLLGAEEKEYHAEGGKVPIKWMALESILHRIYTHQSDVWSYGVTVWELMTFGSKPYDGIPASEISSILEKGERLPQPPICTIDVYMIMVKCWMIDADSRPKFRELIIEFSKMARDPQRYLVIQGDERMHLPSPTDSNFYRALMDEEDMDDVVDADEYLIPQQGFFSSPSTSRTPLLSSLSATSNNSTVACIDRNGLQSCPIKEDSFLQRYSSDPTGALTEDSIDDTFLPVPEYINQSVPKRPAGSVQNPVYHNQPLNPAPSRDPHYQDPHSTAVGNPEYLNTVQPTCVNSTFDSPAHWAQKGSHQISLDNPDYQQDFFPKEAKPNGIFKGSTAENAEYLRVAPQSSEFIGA

Ba/F3-FL-EGFR-del19-T790M-C797S, sequence (P00533 with tags, fused parts or gaps DEL746-750/T790M/C797S): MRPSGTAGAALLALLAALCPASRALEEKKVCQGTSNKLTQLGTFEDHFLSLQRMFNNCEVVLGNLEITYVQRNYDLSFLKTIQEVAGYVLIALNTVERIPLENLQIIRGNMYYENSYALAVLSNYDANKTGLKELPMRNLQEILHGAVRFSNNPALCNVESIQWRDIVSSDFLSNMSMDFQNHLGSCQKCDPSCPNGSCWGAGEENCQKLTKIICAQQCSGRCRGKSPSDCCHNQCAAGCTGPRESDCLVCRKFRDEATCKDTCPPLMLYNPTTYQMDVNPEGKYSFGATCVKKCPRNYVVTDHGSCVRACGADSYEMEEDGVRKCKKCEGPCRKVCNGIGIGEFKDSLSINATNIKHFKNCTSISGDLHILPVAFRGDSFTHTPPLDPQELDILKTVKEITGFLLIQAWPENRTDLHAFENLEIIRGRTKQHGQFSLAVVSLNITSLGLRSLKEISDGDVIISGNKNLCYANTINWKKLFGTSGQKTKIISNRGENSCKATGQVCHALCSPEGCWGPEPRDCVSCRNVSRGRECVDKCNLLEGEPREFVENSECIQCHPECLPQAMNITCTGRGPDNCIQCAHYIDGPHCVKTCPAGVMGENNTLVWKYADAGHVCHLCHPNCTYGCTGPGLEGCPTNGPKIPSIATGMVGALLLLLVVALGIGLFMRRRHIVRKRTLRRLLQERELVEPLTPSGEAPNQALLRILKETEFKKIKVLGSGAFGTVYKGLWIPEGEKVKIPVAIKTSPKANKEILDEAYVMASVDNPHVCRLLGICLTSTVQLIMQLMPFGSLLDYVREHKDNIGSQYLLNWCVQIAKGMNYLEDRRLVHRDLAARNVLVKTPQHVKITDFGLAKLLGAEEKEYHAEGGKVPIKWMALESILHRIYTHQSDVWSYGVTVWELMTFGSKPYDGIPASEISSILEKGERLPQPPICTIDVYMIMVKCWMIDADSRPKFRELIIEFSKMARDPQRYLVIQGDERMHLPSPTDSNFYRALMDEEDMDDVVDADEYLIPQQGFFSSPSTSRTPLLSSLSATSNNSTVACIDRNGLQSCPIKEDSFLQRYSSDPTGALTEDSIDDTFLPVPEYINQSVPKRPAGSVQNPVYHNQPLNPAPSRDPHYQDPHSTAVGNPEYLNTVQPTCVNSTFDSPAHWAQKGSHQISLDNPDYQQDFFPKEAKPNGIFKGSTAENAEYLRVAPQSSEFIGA
T1 sequence (P00533 whole entry, change not shown): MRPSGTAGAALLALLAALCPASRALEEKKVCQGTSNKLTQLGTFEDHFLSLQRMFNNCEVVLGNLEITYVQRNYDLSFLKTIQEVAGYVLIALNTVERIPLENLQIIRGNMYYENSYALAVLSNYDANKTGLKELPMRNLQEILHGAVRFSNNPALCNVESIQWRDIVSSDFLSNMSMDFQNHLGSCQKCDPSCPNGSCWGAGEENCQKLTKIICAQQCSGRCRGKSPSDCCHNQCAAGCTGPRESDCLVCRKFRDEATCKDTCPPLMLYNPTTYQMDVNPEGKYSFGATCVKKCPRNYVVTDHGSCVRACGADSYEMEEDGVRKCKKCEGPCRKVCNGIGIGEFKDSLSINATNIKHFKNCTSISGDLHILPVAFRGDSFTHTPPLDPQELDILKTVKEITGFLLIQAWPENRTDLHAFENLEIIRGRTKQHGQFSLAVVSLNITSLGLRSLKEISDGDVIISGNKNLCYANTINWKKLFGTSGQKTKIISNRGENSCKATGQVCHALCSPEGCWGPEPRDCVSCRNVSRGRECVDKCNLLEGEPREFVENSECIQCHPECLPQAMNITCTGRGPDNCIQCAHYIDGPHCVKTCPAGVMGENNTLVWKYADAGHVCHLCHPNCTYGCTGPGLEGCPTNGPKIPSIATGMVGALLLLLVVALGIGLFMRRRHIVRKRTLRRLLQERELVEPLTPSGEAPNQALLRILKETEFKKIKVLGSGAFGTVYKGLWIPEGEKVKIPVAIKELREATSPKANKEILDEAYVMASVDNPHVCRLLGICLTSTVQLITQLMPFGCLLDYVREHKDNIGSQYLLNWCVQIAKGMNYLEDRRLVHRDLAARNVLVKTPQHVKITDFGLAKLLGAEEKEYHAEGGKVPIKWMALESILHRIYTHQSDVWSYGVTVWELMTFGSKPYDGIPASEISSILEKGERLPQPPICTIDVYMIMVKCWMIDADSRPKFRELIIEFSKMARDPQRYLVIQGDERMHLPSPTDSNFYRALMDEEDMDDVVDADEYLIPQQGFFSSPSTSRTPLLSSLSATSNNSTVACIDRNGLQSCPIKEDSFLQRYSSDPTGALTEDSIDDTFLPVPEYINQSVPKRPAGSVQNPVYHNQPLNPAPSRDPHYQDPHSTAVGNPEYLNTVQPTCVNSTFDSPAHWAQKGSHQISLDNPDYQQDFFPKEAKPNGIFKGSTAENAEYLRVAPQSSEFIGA
Ba/F3-FL-EGFR-Del19 (E746-A750), sequence (P00533 with tags, fused parts or gaps DEL746-750): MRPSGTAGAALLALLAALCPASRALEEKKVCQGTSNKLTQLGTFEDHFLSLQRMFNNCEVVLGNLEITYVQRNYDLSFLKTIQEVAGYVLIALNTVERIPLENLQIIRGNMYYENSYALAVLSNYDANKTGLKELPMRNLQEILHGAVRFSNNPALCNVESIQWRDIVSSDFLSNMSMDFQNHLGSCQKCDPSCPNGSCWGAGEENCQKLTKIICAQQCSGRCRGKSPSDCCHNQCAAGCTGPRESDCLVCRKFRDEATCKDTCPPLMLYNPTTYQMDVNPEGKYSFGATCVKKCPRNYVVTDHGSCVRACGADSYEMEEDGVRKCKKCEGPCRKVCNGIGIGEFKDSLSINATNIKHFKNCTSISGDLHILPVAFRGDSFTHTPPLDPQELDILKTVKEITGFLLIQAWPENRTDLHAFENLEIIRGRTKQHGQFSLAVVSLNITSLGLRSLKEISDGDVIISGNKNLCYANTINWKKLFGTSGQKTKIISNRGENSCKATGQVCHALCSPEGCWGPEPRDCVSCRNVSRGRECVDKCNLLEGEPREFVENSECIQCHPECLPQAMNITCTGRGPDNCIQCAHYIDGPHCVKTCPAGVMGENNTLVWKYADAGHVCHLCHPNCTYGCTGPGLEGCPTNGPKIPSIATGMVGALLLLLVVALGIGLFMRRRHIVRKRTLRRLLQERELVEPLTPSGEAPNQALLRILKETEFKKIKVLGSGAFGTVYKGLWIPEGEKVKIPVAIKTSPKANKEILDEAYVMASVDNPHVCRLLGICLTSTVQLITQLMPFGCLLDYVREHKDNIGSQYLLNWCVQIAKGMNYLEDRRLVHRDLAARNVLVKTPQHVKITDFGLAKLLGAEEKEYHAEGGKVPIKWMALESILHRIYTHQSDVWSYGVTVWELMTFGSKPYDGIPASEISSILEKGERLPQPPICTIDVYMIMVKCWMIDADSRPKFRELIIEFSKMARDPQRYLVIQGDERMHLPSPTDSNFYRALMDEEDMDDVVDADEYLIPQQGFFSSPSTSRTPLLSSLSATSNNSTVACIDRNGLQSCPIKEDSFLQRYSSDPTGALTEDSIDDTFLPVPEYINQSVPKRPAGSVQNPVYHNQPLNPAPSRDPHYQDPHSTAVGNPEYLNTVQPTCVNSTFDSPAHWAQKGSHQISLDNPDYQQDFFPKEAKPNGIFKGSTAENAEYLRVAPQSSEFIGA

- GI50 [1]: 121 nM
- GI50 [2]: 3.7 nM
- GI50 [3]: 4.3 nM
- GI50 [4]: 10 nM
- IC50 [5]: 3.1 nM
- GI50 [6]: 3.1 nM
- CLint scaled at 1 μM [7]: < 8.6 mL/min/kg
- CLint scaled at 1 μM [8]: 448 mL/min/kg
- GI50 [10]: 3.1 nM
- GI50 [11]: 0.3 nM
SMILES: CC(C)c1ccc(N2C[C@H](N(C)S(C)(=O)=O)[C@H]2C)c2cnc(Nc3ccnc(-c4cnn(S(=O)(=O)C5CC5)c4)n3)cc12 [Compound H23]
- Tumor volume (mm^3) [9]: 28 mm^3
- TGI ([9]; based on final tumor volume): 103%

Source: patent publication US20250092017A1, “2-PIPERIDYL OR 2-PYRAZOLYL SUBSTITUTED PYRIMIDINE COMPOUND SERVING AS EGFR INHIBITOR” (SUZHOU PUHE BIOPHARMA CO., LTD., priority 2022, published 2025)
